Values after ≈ are worked out from the molar mass of the structure shown. Counter-ions that a name gives are not always drawn. Like-named read-outs stand apart in the source and are kept apart here.
How the values were obtained:
[1] = tested on: Gram positive and Gram negative tested bacteria; assay: Broth microdilution MIC/MBC, range over the bacterial panel; format: cell-based
Description: (§1) Two Gram-positive (S. aureus ATCC 29213 and S. epidermidis ATCC 35984) and two Gram-negative (E. coli ATCC 8739 and P. aeruginosa ATCC 9027) strains, and one fungal strain (C. albicans ATCC 10231) were used for the detection of antibacterial activity of carvacrol, NAC, Ac-Cys(Allyl)-OH, and carvacrol codrugs 1–10. All tested compounds were dissolved in 20% DMSO to prepare the stock solution (100 mg/mL). The final concentration of DMSO in each well appeared to be not toxic for all studied microorganisms, as confirmed by the solvent control test included in the study.
The effects of carvacrol codrugs 1–10 and reference compounds on planktonic cells were evaluated by Minimum Inhibitory Concentration (MIC) and Minimum Bactericidal Concentration (MBC) determination using the broth microdilution method according to EUCAST guidelines. Bacterial suspensions, grown in Mueller–Hinton Broth (MHB) at logarithmic phase, were incubated on microtiter plates at a concentration of 5 x 10^5 CFU/mL, with several dilutions (0.07–40 mg/mL) for 24 h at 37°C. The MIC was defined as the lowest concentration of substances giving a complete inhibition of visible growth in comparison with a control well, and the MBC was determined as the lowest concentration at which no bacterial growth occurred on Mueller–Hinton Agar plates. […]

[2] = tested on: S. aureus ATCC 29213; assay: Antibiofilm assay on established biofilm (BIC/BEC); format: cell-based; conditions: S. aureus ATCC 29213 established biofilm; for BIC: 24 h
Description: (§2) The efficacy on established biofilm was evaluated by determining Biofilm Inhibitory Concentration (BIC) and Biofilm Eradication Concentration (BEC) according to the method described by Johnson et al. with some modifications. Bacterial suspensions, grown in Tryptic soy broth supplemented with 0.5% (v/v) glucose at logarithmic phase, as well as C. albicans grown in RPMI 1640 plus 2% glucose, were incubated on flat-bottomed microtiter plates at a concentration of 5 x 10^5 CFU/mL. After 24 h of incubation at 37°C, the planktonic cells were gently removed and wells were washed with sterile phosphate-buffered saline solution (PBS) pH 7.3 and filled with carvacrol, carvacrol codrug 4, Ac-Cys(Allyl)-OH with dilutions ranging from the MIC values to a maximum concentration of 50 mg/mL. The OD600 was measured at time 0 and after incubation for 24 h at 37°C. The BIC values were determined as the lowest concentrations where no growth occurred in the supernatant fluid, confirmed by no increase in optical density compared with the initial reading. The BEC values were determined as the lowest concentrations at which no bacterial growth occurred on Tryptic soy agar for bacteria and on Sabouraud agar for C. albicans. Data were obtained from at least three independent experiments performed in duplicate.

[3] = tested on: S. epidermidis ATCC 35984; assay: Antibiofilm assay on established biofilm (BIC/BEC); format: cell-based; conditions: for BEC / BIC: S. epidermidis ATCC 35984 established biofilm; for BIC: 24 h
Description: as §2

[4] = tested on: E. coli ATCC 8739; assay: Antibiofilm assay on established biofilm (BIC/BEC); format: cell-based; conditions: for BEC as multiple of MIC / BIC as multiple of MIC: E. coli ATCC 8739; for BEC / BIC: E. coli ATCC 8739 established biofilm; for BIC: 24 h
Description: as §2

[5] = tested on: P. aeruginosa ATCC 9027; assay: Antibiofilm assay on established biofilm (BIC/BEC); format: cell-based; conditions: for BEC as multiple of MIC: P. aeruginosa ATCC 9027; for BEC / BIC: P. aeruginosa ATCC 9027 established biofilm; for BIC: 24 h
Description: as §2

[6] = tested on: C. albicans ATCC 10231; assay: Antibiofilm assay on established biofilm (BIC/BEC); format: cell-based; conditions: for BEC / BIC: C. albicans ATCC 10231 established biofilm; for BIC: 24 h
Description: as §2

[7] = tested on: S. aureus ATCC 29213; assay: Broth microdilution MIC/MBC on planktonic cells; format: cell-based; conditions: Staphylococcus aureus
Description: as §1
(§3) The effects of carvacrol codrugs 1–10 and reference compounds on planktonic cells were evaluated by Minimum Inhibitory Concentration (MIC) and Minimum Bactericidal Concentration (MBC) determination using the broth microdilution method according to EUCAST guidelines. Bacterial suspensions, grown in Mueller–Hinton Broth (MHB) at logarithmic phase, were incubated on microtiter plates at a concentration of 5 x 10^5 CFU/mL, with several dilutions (0.07–40 mg/mL) for 24 h at 37°C. The MIC was defined as the lowest concentration of substances giving a complete inhibition of visible growth in comparison with a control well, and the MBC was determined as the lowest concentration at which no bacterial growth occurred on Mueller–Hinton Agar plates.
(§4) Data were obtained from at least three independent experiments performed in duplicate. The susceptibility of the bacterial strains against ciprofloxacin was used as an internal standard during MIC determinations.

[8] = tested on: S. epidermidis ATCC 35984; assay: Broth microdilution MIC/MBC on planktonic cells; format: cell-based; conditions: Staphylococcus epidermidis
Description: as §1, §3, §4

[9] = tested on: E. coli ATCC 8739; assay: Broth microdilution MIC/MBC on planktonic cells; format: cell-based; conditions: Escherichia coli
Description: as §1, §3, §4

[10] = tested on: P. aeruginosa ATCC 9027; assay: Broth microdilution MIC/MBC on planktonic cells; format: cell-based; conditions: Pseudomonas aeruginosa
Description: as §1, §3, §4

[11] = tested on: C. albicans ATCC 10231; assay: Broth microdilution MIC/MFC; format: cell-based; conditions: Candida albicans, ATCC10231
Description: as §1
The MIC detection of C. albicans ATCC 10231 was performed using the broth microdilution method according to EUCAST guidelines in RPMI 1640 plus 2% glucose with a final inoculum of 1–5 x 10^5 CFU/mL for 24–48 h at 37°C. The Minimum Fungicidal Concentration (MFC) was determined as the lowest concentration of substances at which no fungal growth occurred on Sabouraud agar plates.
as §4

[12] = tested on: human red blood cells (h-RBC); assay: Hemolytic activity; format: cell-based; conditions: 4% h-RBC, 1 h at 37°C
Description: (§5) Experimental protocols to study hemolysis on human red cells were approved by Ethics Committee of the University “G. d’Annunzio” Chieti-Pescara. Human red cells were from two volunteers, who signed the informed consent for this study.
(§6) Hemolytic activity of carvacrol codrugs 1–10 was tested against human red blood cells (h-RBC). Fresh human blood, collected with EDTA, was centrifuged at 3000 rpm for 5 min then washed three times with PBS pH 7.3. Red blood cells were diluted to 4% in PBS and incubated with different codrugs concentrations ranging from 25 to 0.05 mg/mL. After 1 h of incubation at 37°C, the suspensions were sedimented by centrifugation and the release of hemoglobin was determined by absorbance measurement at 405 nm and compared with a 0% hemolysis control (PBS) and a 100% hemolysis control (PBS with 1% v/v Triton X-100). The percentage of hemolysis was calculated using the following equation: Hemolysis (%) = [(OD405sample - OD4050% lysis control)/(OD405100% lysis control - OD4050% lysis contro)] X 100

[13] = Hemolytic activity; format: cell-based, human; conditions: human, human red blood cells (h-RBC), 4% suspension, pH 7.3; 4% h-RBC in PBS, 1 h at 37°C, at the compound's MIC values
Description: as §5, §6

[14] = ATCC29213, S. aureus ATCC 29213, 24 h at 37°C, read-out: MIC
[15] = ATCC29213, S. aureus ATCC 29213, read-out: MBC
[16] = ATCC35984, S. epidermidis ATCC 35984, 24 h at 37°C, read-out: MIC
[17] = ATCC35984, S. epidermidis ATCC 35984, read-out: MBC
[18] = ATCC8739, E. coli ATCC 8739, 24 h at 37°C, read-out: MIC
[19] = ATCC8739, E. coli ATCC 8739, read-out: MBC
[20] = ATCC9027, P. aeruginosa ATCC 9027, 24 h at 37°C, read-out: MIC
[21] = ATCC9027, P. aeruginosa ATCC 9027, read-out: MBC
[22] = C. albicans ATCC 10231, 24–48 h at 37°C, read-out: MIC
[23] = C. albicans ATCC 10231, read-out: MFC

Row | SMILES | MIC [7, 14] [µg/mL] | MIC [8, 16] [µg/mL] | MIC [9, 18] [µg/mL] | MIC [10, 20] [µg/mL] | MIC [11, 22] [µg/mL] | BEC [2] [mg/mL] | BIC [2] [mg/mL] | BEC as multiple of MIC ([3]; S. epidermidis ATCC 35984) [MIC] | BEC [3] [mg/mL] | BIC [3] [mg/mL] | BEC as multiple of MIC [4] [MIC] | BIC as multiple of MIC [4] [MIC] | BEC [4] [mg/mL] | BIC [4] [mg/mL] | BEC as multiple of MIC [5] [MIC] | MBC [7, 15] [µg/mL] | MBC [8, 17] [µg/mL] | MBC [9, 19] [µg/mL] | MBC [10, 21] [µg/mL] | MFC [11, 23] [µg/mL] | further results
1 | Cc1ccc(C(C)C)cc1O [Carvacrol, 2-methyl-5-[1-methylethyl]phenol] |  |  |  |  |  | 2.5 | 1.2 | 2 | 0.6 | 0.3 | 64 | 64 | 40 | 40 | 2 |  |  |  |  |  | BEC [5]: 10 mg/mL; BIC [5]: 5 mg/mL; BEC as multiple of MIC ([6]; C. albicans ATCC 10231): MFC; BEC [6]: 0.6 mg/mL; BIC [6]: 0.3 mg/mL; MBC ([7]; ATCC29213): 1250 µg/mL (≈ 8.32 mM); MIC ([7]; ATCC29213, 24 h): 600 µg/mL (≈ 3.99 mM); MBC ([8]; ATCC35984): 1250 µg/mL (≈ 8.32 mM); MIC ([8]; ATCC35984, 24 h): 300 µg/mL (≈ 2 mM); MBC ([9]; ATCC8739): 1250 µg/mL (≈ 8.32 mM); MIC ([9]; ATCC8739, 24 h): 600 µg/mL (≈ 3.99 mM); MBC ([10]; ATCC9027): 10000 µg/mL (≈ 66.6 mM); MIC ([10]; ATCC9027, 24 h): 5000 µg/mL (≈ 33.3 mM); MFC [11]: 600 µg/mL (≈ 3.99 mM); MIC [11]: 300 µg/mL (≈ 2 mM)
2 | Cc1ccc(C(C)C)cc1OC(=O)[C@@H]1CSCN1 [codrug 8, TFA·TCA-CAR] | 5000 | 2500 | 5000 | 10000 | 600 |  |  |  |  |  |  |  |  |  |  | 10000 | 5000 | 5000 | 10000 | 600 | concentration at which hemolytic activity is over 50% [12]: 3000 µg/mL; hemolysis at 1 h [13]: > 50%

Continued, in another order:

Row | MIC [7, 14] [µg/mL] | MIC [8, 16] [µg/mL] | MIC [9, 18] [µg/mL] | MIC [10, 20] [µg/mL] | MIC [11, 22] [µg/mL] | SMILES | BEC [2] [mg/mL] | BIC [2] [mg/mL] | BEC as multiple of MIC ([3]; S. epidermidis ATCC 35984) [MIC] | BEC [3] [mg/mL] | BIC [3] [mg/mL] | BEC as multiple of MIC [4] [MIC] | BIC as multiple of MIC [4] [MIC] | BEC [4] [mg/mL] | BIC [4] [mg/mL] | BEC as multiple of MIC [5] [MIC] | MBC [7, 15] [µg/mL] | MBC [8, 17] [µg/mL] | MBC [9, 19] [µg/mL] | MBC [10, 21] [µg/mL] | MFC [11, 23] [µg/mL] | further results
3 | 5000 (≈ 24.6 mM) | 5000 (≈ 24.6 mM) | 2500 (≈ 12.3 mM) | 10000 (≈ 49.2 mM) | 2500 (≈ 12.3 mM) | C=CCSC[C@H](NC(C)=O)C(=O)O [Ac-Cys(Allyl)-OH, N-Ac-Cys(Allyl)-OH] | 20 | 10 | 4 | 20 | 20 | 8 | 2 | 20 | 5 | 2 | 5000 (≈ 24.6 mM) | 5000 (≈ 24.6 mM) | 2500 (≈ 12.3 mM) | 10000 (≈ 49.2 mM) | 2500 (≈ 12.3 mM) | MIC values (range over strains) ([1]; bacterial strains of Table 1): 2500 to 10000 µg/mL; BIC as multiple of MIC ([3]; S. epidermidis ATCC 35984): 4MIC; BEC [5]: 20 mg/mL; BIC [5]: 10 mg/mL; BEC as multiple of MIC ([6]; C. albicans ATCC 10231): 2MIC; BIC as multiple of MIC ([6]; C. albicans ATCC 10231): 2MIC; BEC [6]: 5 mg/mL; BIC [6]: 5 mg/mL
4 | 5000 (≈ 30.6 mM) | 5000 (≈ 30.6 mM) | 5000 (≈ 30.6 mM) | 5000 (≈ 30.6 mM) | 20000 (≈ 123 mM) | CC(=O)N[C@@H](CS)C(=O)O [NAC, N-Acetyl-cysteine, reference compound] |  |  |  |  |  |  |  |  |  |  | 20000 (≈ 123 mM) | 5000 (≈ 30.6 mM) | 5000 (≈ 30.6 mM) | 5000 (≈ 30.6 mM) | 80000 (≈ 490 mM) | MIC and MBC values (range over strains) ([1]; Gram positive and Gram negative tested bacteria): 5000 to 20000 µg/mL
5 | 10000 (≈ 30 mM) | 5000 (≈ 15 mM) | 10000 (≈ 30 mM) | 10000 (≈ 30 mM) | 1250 (≈ 3.75 mM) | C#CCSC[C@H](NC(C)=O)C(=O)Oc1cc(C(C)C)ccc1C [codrug 9, N-Ac-Cys(Propargyl)-CAR] |  |  |  |  |  |  |  |  |  |  | 10000 (≈ 30 mM) | 10000 (≈ 30 mM) | 10000 (≈ 30 mM) | 10000 (≈ 30 mM) | 2500 (≈ 7.5 mM) | concentration at which hemolytic activity is over 50% [12]: 10000 µg/mL; hemolysis at 1 h [13]: > 50%

Reference: article PMC4393269, “Carvacrol Codrugs: A New Approach in the Antimicrobial Plan” (PLoS ONE, 2015)
